Test results: patent publication US7524503B2, “Human cytomegalovirus (HCMV) cytotoxic T cell epitopes, polyepitopes compositions comprising same and diagnostic and prophylactic and therapeutic uses therefor” (priority 2001, dated 2009)
Values joined by “and” are separate entries in the source; they are usually repeats but may differ in a detail not shown here. Equal values may be shown once. Read-outs that look alike come from different tables or passages of the source.

Key:
[1] = tested on: PBMC from healthy HCMV seropositive donors; experiment: IFN-γ ELISPOT assay; format: cell-based, human; conditions: for ELISPOT Responses (SFC/10^6 PBMC): peptide 10 μg/ml
How it was run: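 IFN-γ-secreting T cells were counted as spots, with no-peptide control wells subtracted and means taken from triplicate wells. These spots came from healthy seropositive carriers' PBMC, 2.5×10^5 per well.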

[2] = tested on: CD4+ T cells; experiment: CD4+/CD8+ analysis of 20-mer peptides (intracellular IFN-γ staining or depletion ELISPOT); format: cell-based, human
Method: (§1) To determine whether a particular 20-mer peptide contained either a CD4^+- or CD8^+-restricted epitope, or both, CD4^+/CD8^+ cell depletion ELISPOT assays were performed on PBMC from healthy virus carriers. For any one experiment, three populations of cells were used: a) CD8^+-depleted PBMC, b) CD4^+-depleted PBMC, and c) non-depleted PBMC. These populations of cells were tested concurrently with the same peptides in a conventional ELISPOT assay as described herein above. DYNABEADS M-450 (Dynal, Oslo, Norway) that bound specifically to CD4^+- or CD8^+ cells were used to perform the depletion essentially according to manufacturers instructions. Beads were washed twice in cold PBS supplemented with 2% FCS using magnetic isolation. The requisite number of cells was resuspended in cold PBS supplemented with 2% FCS, added to the beads and then incubated at 4° C., in the dark, for 30 mins (CD8^+ beads) or 60 mins (CD4^+ beads). Populations were depleted of CD4^+ or CD8^+ cells using magnetic separation. After depletion, the non-attached cells were removed and washed once in growth medium, counted and used in conventional ELISPOT assay. Depleted cells were used at 1.7×10^5 cells per well and the non-depleted population was used at the standard 2.5×10^5 cells per well. After the depletion step, each respective cell population was assessed for the purity of CD4^+ and CD8^+ T cells by three-colour flow cytometry. Samples of depleted cell populations were stained with anti-CD3 antibody directly conjugated to fluorescein isothiocyanate (FITC), anti-CD4 antibody conjugated with phycoerythrin (PE) fluorochrome, and anti-CD8 antibody conjugated with Tricolor fluorochrome (described below). The percent of CD3^+/CD4^+ cells present within the CD8^+-depleted population and the percent of CD3^+/CD8^+ cells present within the CD4^+-depleted populations were assessed on FACSCalibur cytometer (Becton Dickinson). The purity of each population was greater than 90% and the results from the ELISPOT assays are expressed as the percentage of CD4+ or CD8^+ cells within the depleted populations that responded toward each peptide by producing IFN-γ.
(§2) PBMCs were incubated at 37° C. in RPMI+10% FCS with and without 10 μg/ml peptides for 6 hours. Golgiplug™ (Pharmingen, San Diego, Calif., USA) was added to the samples according to manufacturer's instructions during the second hour of incubation and cells activated with 25 ng/ml phorbol 12-myristidate 13-acetate (PMA; Sigma-Aldrich Co, St. Louis Mo.) and 1 μg/ml iomomycin (Sigma) acted as a positive control. Following the incubation, 1×10^6 cells/sample were washed and resuspended in staining buffer consisting of PBS with GolgiPlug™, 3% FCS and sodium azide. Cells were then stained with FITC conjugated anti-CD3-FITC (UCHT1, Immunotech, Marseille, France), and either Tricolor (TRI) conjugated anti-CD4 (S3.5, Caltag, Burlingame, Calif.) or anti-CD8 (3B5, Caltag) for 30 minutes, 4° C. in the dark. The cells were fixed for 20 min at 4° C. with Cytofix/Cytoperm™ (BD Biosciences) and resuspended in Perm/Wash™ permeabilization buffer (BD Biosciences) according to manufacturers protocol. Fixed cells were stained with phycoerythrin (PE) conjugated anti-human IFN-γ (B27, Pharmingen) for 30 min at 4° C. in the dark. As a negative control, cells were stained with appropriate isotype matched control antibodies. Cells were washed twice in permeabilization buffer and resuspended in staining buffer before analysis by three-colour flow cytometry on a FACSCalibur cytometer (BD Biosciences). All data analysis was carried out using FlowJo software (Tree Star, Inc. San Carlos, CA).
(§3) When using 20-mer peptides to map epitopes by ELISPOT, it is possible that some responses may be MHC class-II restricted, and not necessarily restricted through HLA class I alleles. It was evident throughout this study that some epitopes identified using ELISPOT could not be confirmed using cytotoxicity analysis. […]

[3] = tested on: CD8+ T cells; experiment: as above; format: cell-based, human
Method: as §1, §2, §3

[4] = tested on: peptide-sensitized autologous PHA blasts or LCLs; format: cell-based, human; set-up: key to CTL response: Y: Yes; ND: Not detected; conditions: for CTL activity of polyclonal CTL line: donor seven, effector:target ratio 10:1
[5] = target: T1, HLA A2 (Homo sapiens, UniProt P04439, D140Y/D185E/D98H/E176V/E277Q/G131W/G231S/I119V/I121R/I166T/I218V/L300P/L318F/N151K/N90K/P208A/P217A/Q86G/Q94H/R138H/R169H/T345S); format: cell-based; conditions: HLA A2 on T2 cells; relative increase in HLA expression vs no peptide at 26° C.
T1 construct: endogenous in cells; host or cells: T2 cells

[6] = overlapping 20mer peptides, Table 4

## ATVQGQNLKYQEFFWDANDI
[1]; donor epsilon
  ELISPOT Responses (SFC/10^6 PBMC): SC(687) SFC/10^6 PBMC
[1]; donor five
  ELISPOT Responses (SFC/10^6 PBMC): 226 SFC/10^6 PBMC
[1]; donor gamma
  ELISPOT Responses (SFC/10^6 PBMC): 202 SFC/10^6 PBMC
[1]; donor three
  ELISPOT Responses (SFC/10^6 PBMC): 189 SFC/10^6 PBMC
[1]; donor twelve
  ELISPOT Responses (SFC/10^6 PBMC): 25 SFC/10^6 PBMC
[2]; donor twelve
  Responding cells (% CD4): 0.03%
[3]; donor twelve
  Responding cells (% CD8): 0%
[4]; [6]
  CTL response: Y

## AVGGAVASV (human cytomegalovirus gB CTL epitope peptide)
[1]; donor seven
  ELISPOT Responses (SFC/10^6 PBMC): SB(192) SFC/10^6 PBMC
[5]
  MSE (MHC stabilization efficiency): − (− = 0-50%)
[4]; predicted epitopes, Table 3
  CTL response: Y

## CSPDEIMAYAQKIFKILDEE
[1]; donor five
  ELISPOT Responses (SFC/10^6 PBMC): CS(1532) SFC/10^6 PBMC
[2]; donor five
  Responding cells (% CD4): 0.53%
[3]; donor five
  Responding cells (% CD8): 0.4%
[4]
  CTL response: Y

## FEQPTETPPEDLDTLSLAIE (human cytomegalovirus IE2 CTL epitope peptide)
[1]; donor fourteen
  ELISPOT Responses (SFC/10^6 PBMC): RK(791) SFC/10^6 PBMC
[2]; donor fourteen
  Responding cells (% CD4): 0.2%
[3]; donor fourteen
  Responding cells (% CD8): 0.35%
[4]; [6]
  CTL response: Y

## FPTKDVAL [reference compound]
[1]; donor three
  ELISPOT Responses (SFC/10^6 PBMC): MW(445) SFC/10^6 PBMC
[4]; predicted epitopes, Table 3
  CTL response: Y

## GQTEPIAFV (human cytomegalovirus pp150 CTL epitope peptide)
[5]
  MSE (MHC stabilization efficiency): + (+ = 51-99%)
[4]
  CTL activity of polyclonal CTL line: lower CTL activity

## IIYTRNHEV (human cytomegalovirus IE2 CTL epitope peptide)
[1]; donor delta
  ELISPOT Responses (SFC/10^6 PBMC): SE(137) SFC/10^6 PBMC
[1]; donor fifteen
  ELISPOT Responses (SFC/10^6 PBMC): 80 SFC/10^6 PBMC
[1]; donor seven
  ELISPOT Responses (SFC/10^6 PBMC): 369 SFC/10^6 PBMC
[5]
  MSE (MHC stabilization efficiency): + (+ = 51-99%)
[4]
  peptide concentration required for half maximal lysis, fold more than NLVPMVATV and VLEETSVML epitopes respectively: 100-500 fold
[4]; predicted epitopes, Table 3
  CTL response: Y

## ILARNLVPMVATVQGQNLKY
[1]; donor four
  ELISPOT Responses (SFC/10^6 PBMC): 500 SFC/10^6 PBMC
[1]; donor seven
  ELISPOT Responses (SFC/10^6 PBMC): 216 SFC/10^6 PBMC
[1]; donor three
  ELISPOT Responses (SFC/10^6 PBMC): MW(229) SFC/10^6 PBMC
[4]; [6]
  CTL response: Y

## LNIPSINVHHYPSAAERKHR
[1]; donor sixteen
  ELISPOT Responses (SFC/10^6 PBMC): 222 SFC/10^6 PBMC
[1]; donor twelve
  ELISPOT Responses (SFC/10^6 PBMC): 285 SFC/10^6 PBMC
[4]; [6]
  CTL response: Y

## NLVPMVATV [reference compound]
[1]; cohort of eight HLA A2-positive healthy seropositive donors
  donors recognizing the epitope in ELISPOT: recognized by every donor tested
[1]; donor delta
  ELISPOT Responses (SFC/10^6 PBMC): 170 SFC/10^6 PBMC
[1]; donor fifteen
  ELISPOT Responses (SFC/10^6 PBMC): 356 SFC/10^6 PBMC and 671 SFC/10^6 PBMC
[1]; donor one
  ELISPOT Responses (SFC/10^6 PBMC): 1201 SFC/10^6 PBMC
[1]; donor seven
  ELISPOT Responses (SFC/10^6 PBMC): 1202 SFC/10^6 PBMC
[1]; donor seventeen
  ELISPOT Responses (SFC/10^6 PBMC): 271 SFC/10^6 PBMC
[1]; donor six
  ELISPOT Responses (SFC/10^6 PBMC): 1195 SFC/10^6 PBMC
[1]; donor thirteen
  ELISPOT Responses (SFC/10^6 PBMC): 161 SFC/10^6 PBMC
[4]; predicted epitopes, Table 3
  CTL response: Y

## QEFFWDANDIYRIFAELEGV
[1]; donor epsilon
  ELISPOT Responses (SFC/10^6 PBMC): SC(704) SFC/10^6 PBMC
[1]; donor five
  ELISPOT Responses (SFC/10^6 PBMC): CS(107) SFC/10^6 PBMC
[1]; donor gamma
  ELISPOT Responses (SFC/10^6 PBMC): 295 SFC/10^6 PBMC
[1]; donor twelve
  ELISPOT Responses (SFC/10^6 PBMC): 30 SFC/10^6 PBMC
[4]; [6]
  CTL response: Y

## SMMWMRFFV (human cytomegalovirus US2 CTL epitope peptide)
[1]; donor delta
  ELISPOT Responses (SFC/10^6 PBMC): SE(393) SFC/10^6 PBMC
[5]
  MSE (MHC stabilization efficiency): ++ (++ = 100-199%)
[4]; predicted epitopes, Table 3
  CTL response: Y

## TGGGAMAGASTSAGRKRKSA
[1]; donor eight
  ELISPOT Responses (SFC/10^6 PBMC): JW(441) SFC/10^6 PBMC
[2]; donor eight
  Responding cells (% CD4): JW(0.01/0.01) %
[3]; donor eight
  Responding cells (% CD8): JW(0.01/0.01) %

## TGPRKKKSKRISELDNEKVR
[1]; donor delta
  ELISPOT Responses (SFC/10^6 PBMC): 162 SFC/10^6 PBMC
[1]; donor seven
  ELISPOT Responses (SFC/10^6 PBMC): 148 SFC/10^6 PBMC
[2]; donor seven
  Responding cells (% CD4): SB(0.02/0.02) %
[3]; donor seven
  Responding cells (% CD8): SB(0.02/0.02) %

## TRATKMQVIGDQYVKVYLES
[1]; donor alpha
  ELISPOT Responses (SFC/10^6 PBMC): 139 SFC/10^6 PBMC
[1]; donor seven
  ELISPOT Responses (SFC/10^6 PBMC): 346 SFC/10^6 PBMC
[2]; donor seven
  Responding cells (% CD4): 0.09%
[3]; donor seven
  Responding cells (% CD8): 0.01%

## VKSEVDAVRCRLGTMCNLAL
[1]; donor delta
  ELISPOT Responses (SFC/10^6 PBMC): 253 SFC/10^6 PBMC
[1]; donor seven
  ELISPOT Responses (SFC/10^6 PBMC): 320 SFC/10^6 PBMC
[2]; donor delta
  Responding cells (% CD4): 0%
[3]; donor delta
  Responding cells (% CD8): 0.06%

## VLAELVKQI (human cytomegalovirus IE1 CTL epitope peptide)
[1]; donor seven
  ELISPOT Responses (SFC/10^6 PBMC): SB(276) SFC/10^6 PBMC
[5]
  MSE (MHC stabilization efficiency): ++ (++ = 100-199%)
[4]; predicted epitopes, Table 3
  CTL response: Y

## VLCCYVLEETSVMLAKRPLI (human cytomegalovirus IE1 CTL epitope peptide)
[1]; donor seven
  ELISPOT Responses (SFC/10^6 PBMC): SB(2171) SFC/10^6 PBMC
[4]; [6]
  CTL response: Y

## VLEETSVML (human cytomegalovirus IE1 CTL epitope peptide)
[1]; donor fifteen
  ELISPOT Responses (SFC/10^6 PBMC): 245 SFC/10^6 PBMC
[1]; donor seven
  ELISPOT Responses (SFC/10^6 PBMC): 3752 SFC/10^6 PBMC
[4]
  CTL activity of polyclonal CTL line: strong CTL activity
[4]; predicted epitopes, Table 3
  CTL response: Y

## VTTERKTPRVTGGGAMAGAS
[1]; donor eight
  ELISPOT Responses (SFC/10^6 PBMC): 285 SFC/10^6 PBMC
[1]; donor epsilon
  ELISPOT Responses (SFC/10^6 PBMC): 322 SFC/10^6 PBMC
[1]; donor two
  ELISPOT Responses (SFC/10^6 PBMC): JD(319) SFC/10^6 PBMC
[2]; donor eight
  Responding cells (% CD4): 0.17%
[3]; donor eight
  Responding cells (% CD8): 0.24%
